Measurements reported in patent US6943190B2, “Method of using pyruvate and/or its derivatives for the treatment of cytokine-mediated inflammatory conditions” (University of Pittsburgh-of the Commonwealth System of …, priority 2001, dated 2005).

Legend:
IL-1 = assay: Peak serum IL-1 in endotoxemic mice (ELISA); assay type: in vivo, Balb/C mice; settings: pretreatment, data not shown
Description: Endotoxin shock. Mice were injected with endotoxin (Escherichia coli lipopolysaccharide, LPS 0111:B4; Sigma Chemical Co, St. Louis, Mo.) that was dissolved in sterile pyrogen-free saline at stock concentrations of 10 mg/ml. LPS solutions were sonicated for 20 min immediately prior to use for each experiment. Mice received an LD75 dose of LPS (5 mg/kg, i.p.). Blood was collected at different times after LPS administration, allowed to clot for 2 h at room temperature, then centrifuged for 20 min at 1,500 g. Serum samples were stored at […] prior to analysis. Mortality was recorded for up to 3 weeks after injection to ensure that no additional late deaths occurred.
Cytokine measurements. TNF concentration in mouse serum and in conditioned media from RAW 264.7 cell cultures was measured by ELISA (minimum detectable concentration=10 pg/ml). […] Mouse serum IL-6 and IL-1β levels were measured using ELISA kits (R&D Systems, Inc., Minneapolis, Minn.). HMGB-1 was analyzed by western blot as previously described by Wang et al, 1999. […] Protein was electroblotting to Immun-blot PVDF membrane (Bio-rad, Hercules Calif.) and HMGB-1 was analyzed using polyclonal 241 antibody and secondary anti-rabbit horseradish peroxidase (Amersham, Pitscataway, N.J.). Standard curves were constructed using r-HMGB-1, and the intensity of the 30 kD band analyzed by densitometry. […]

[1] = test system: lethal sepsis caused by peritonitis (cecal perforation); assay: Cecal ligation and puncture (CLP) peritonitis/sepsis: survival; assay type: in vivo, Balb/C mice
Description: Animal Experiments. Male 6-8 week old Balb/C mice (20-25 g) were purchased from Harlen Sprague-Dawley (Indianapolis, Ind.) and allowed to acclimate for 7 days housed at 25° C. on a 12 h light/dark cycle. Animals were randomly grouped (10 mice per group) and assigned to a specific experiment. All animal experiments were performed in accordance with the National Institutes of Health Guidelines under protocols approved by the Institutional Animal Care and Use Committee of North Shore University Hospital and New York University Medical School.
Cecal ligation and puncture (CLP). Cecal ligation and puncture (CLP) was performed as described by (Wichterman et al., J. Surg. Res. (1980) 29(2):189-201). Briefly, mice were anesthetized with 20 mg/ml xylazine intramuscularly at a dose of […], a midline incision was performed, and the cecum was isolated. A 6-0 prolene suture ligature was placed at a level 5.0 mm from the cecal tip away from the ileocecal valve. The ligated cecal stump was then punctured once with a 22-gauge needle, and stool extruded (1 mm) to ascertain patency of the puncture site. […] Mortality was recorded for up to 1 week after the procedure; survivors were followed for 3 weeks to ensure no late mortalities had occurred. […]

Caco-2 human enterocytes = assay: Cytomix-induced hyperpermeability of Caco-2 monolayers (FD4 clearance); assay type: cell-based; settings: 48 h incubation with cytomix (IFN-γ, IL-1β, TNF-α); both of the highest concentrations; P<0.001
Description: To test for the effect of ethyl pyruvate on a stabilizing calcium salt solution (REPS) in a cytokine-induced intestinal epithelial hyperpermeability condition, an in vitro model of intestinal epithelial injury due to inflammation, such as might occur in cases of inflammatory bowel disease (i.e., Crohn's disease or ulcerative colitis) was used.
Exemplary materials and methods include the following, while minor modifications can be made: Caco-2 human enterocytes (10^5 cells/well) were plated on permeable filters in 12-well Transwell bicameral chambers (COSTAR, Corning, N.Y.) and fed biweekly. Permeability studies were carried out using confluent monolayers between 21-28 d after seeding. The permeability probe was FITC-labeled dextran (4400 Da; FD4). A sterile stock solution of FD4 (25 mg/ml) was prepared by dissolving the compound in HEPES-buffered DMEM complete medium (pH 6.8) and passing it through a filter ([…] pore size). For permeability studies, the medium was aspirated from the apical and basolateral sides of the Transwell chambers. FD4 solution (200 μl) was added to the apical compartments. […] (Menconi et al., Am. J. Physiol. (1997) 272:G1007-G1021.) The permeability of monolayers was expressed as a clearance (C), which was calculated as previously described. […]

CCOC(=O)C(C)=O [ethyl pyruvate]
peak serum level of IL-1 (IL-1): attenuated | survival ([1]; 40 mg/kg i.p. beginning 24 hours after onset of peritonitis, three weeks of monitoring, vehicle 5/17, P<0.005): 14/17 | protection against death ([1]; lower ethyl pyruvate doses, beginning 24 hours after onset of peritonitis): failed to confer significant protection against death | cytomix-induced hyperpermeability of Caco-2 monolayers (FD4 clearance) (Caco-2 human enterocytes): significantly decreased cytomix-induced hyperpermeability
